Results on 17 compounds are retold here after patent US20240131028A1, “CHEMOVACCINATION AGAINST PLASMODIUM INFECTION WITH SELECTIVE PLASMEPSIN X INHIBITORS” (Merck Sharp & Dohme LLC, priority 2021, published 2024).

The subject of one assay is ring stage parasites (Pf). The experiment in a line: Parasite lactate dehydrogenase (LDH) growth assay (Parasite Assay, PfLDH Assay). Type of assay: cell-based, P. falciparum. The conditions noted are these: Table 3; 72 hours growth, LDH readout; read-out: EC50. As to the method:
The parasite stock was maintained at 4% haematocrit in RPMI-Hepes media buffered with sodium bicarbonate and supplemented with 5% heat inactivated human serum and 0.5% albumax. […] On the day of assay set up, a blood smear of the parasite culture was Giemsa stained and counted. The parasitemia was adjusted to 0.7% rings and the haematocrit was diluted to 2% in RPMI-Hepes media buffered with sodium bicarbonate and supplemented with 5% heat inactivated human serum and 0.5% albumax. 30 μl of diluted parasites are then added into 10 μl of media+compound in pre-prepared Greiner TC assay plates. Parasite assay plates were placed in gassed humidified boxes in single layer and allowed to incubate at 37° C. for 72 hours. After 72 hours growth, assay plates were sealed with parafilm and frozen flat, in single file at −80° C. overnight. On the following day, assay plates were allowed to thaw at room temperature for 4 hours to which an LDH assay was performed to measure parasite growth.
As to `COCC1(C)CC(NC(=O)[C@H]2C[C@@H]2[C@@H](c2cccnc2)N2C(=N)NC(C)(C)CC2=O)c2ccccc2O1` (single isomer, unassigned) [Example 108A], the concentration for a half-maximal effect (EC50) is 70 nM. Regarding `COCC1(C)CC(NC(=O)[C@H]2C[C@@H]2[C@@H](c2cccnc2)N2C(=N)NC(C)(C)CC2=O)c2ccccc2O1` (single isomer, unassigned) [Example 108B], the half-maximal effective concentration (EC50) came out at 3.7 nM.

Take `COCC1(C)CC(NC(=O)[C@H]2C[C@@H]2[C@@H](c2cccnc2)N2C(=N)NC(C)(C)CC2=O)c2ccccc2O1` (single isomer, unassigned) [Example 108C]: the EC50 came to 6 nM. In the case of `COCC1(C)CC(NC(=O)[C@H]2C[C@@H]2[C@@H](c2cccnc2)N2C(=N)NC(C)(C)CC2=O)c2ccccc2O1` (single isomer, unassigned) [Example 108D], the half-maximal effective concentration (EC50) came to 8.5 nM. For `CC1(C)CC(=O)N([C@H](c2cccnc2)[C@H]2C[C@@H]2C(=O)NC2CC(C)(C)Oc3ccc(C(F)(F)F)cc32)C(=N)N1` (single isomer, unassigned) [Example 109A], the half-maximal effective concentration (EC50) is 2.3 nM. `CC1(C)CC(=O)N([C@H](c2cccnc2)[C@H]2C[C@@H]2C(=O)NC2CC(C)(C)Oc3ccc(C(F)(F)F)cc32)C(=N)N1` (single isomer, unassigned) [Example 109B]: the concentration for a half-maximal effect (EC50) was found to be 1 nM.

For the compound `CC[C@]1(C)CC(=O)N([C@H](CCOC)[C@H]2C[C@@H]2C(=O)NC2CC(C)(C)Oc3ccc(C(F)(F)F)cc32)C(=N)N1` (single isomer, unassigned) [Example 127A], the EC50 turned out to be 1.1 nM. In the case of `CC[C@]1(C)CC(=O)N([C@H](CCOC)[C@H]2C[C@@H]2C(=O)NC2CC(C)(C)Oc3ccc(C(F)(F)F)cc32)C(=N)N1` (single isomer, unassigned) [Example 127B], the EC50 turned out to be 2.6 nM.

For `CC[C@]1(C)CC(=O)N([C@H](CCOC)[C@H]2C[C@@H]2C(=O)NC2CC(C)(C)Oc3ccc(F)cc32)C(=N)N1` (single isomer, unassigned) [Example 130A], the 50% effective concentration (EC50) came out at 0.9 nM. `CC[C@]1(C)CC(=O)N([C@H](CCOC)[C@H]2C[C@@H]2C(=O)NC2CC(C)(C)Oc3ccc(F)cc32)C(=N)N1` (single isomer, unassigned) [Example 130B]: the half-maximal effective concentration (EC50) stood at 2.4 nM.

As for `CCC1C[C@H](NC(=O)[C@H]2C[C@@H]2CN2C(=N)NC(C)(C)CC2=O)c2ccccc2O1` (single isomer, unassigned) [Example 133A], the EC50 came out at 210 nM. As to `CCC1C[C@H](NC(=O)[C@H]2C[C@@H]2CN2C(=N)NC(C)(C)CC2=O)c2ccccc2O1` (single isomer, unassigned) [Example 133B], the EC50 was 100 nM.

`COCC[C@H]([C@H]1C[C@@H]1C(=O)NC1CC(C)(C)Oc2cc(OC(F)(F)F)ccc21)N1C(=N)NC(C)(C)CC1=O` (single isomer, unassigned) [Example 134A]: the concentration for a half-maximal effect (EC50) stood at 71 nM.

As to `COCC[C@H]([C@H]1C[C@@H]1C(=O)NC1CC(C)(C)Oc2cc(OC(F)(F)F)ccc21)N1C(=N)NC(C)(C)CC1=O` (single isomer, unassigned) [Example 134B], the EC50 came to 25 nM.

Still in this assay, the particulars now being: Table 4; 72 hours growth, LDH readout; read-out: EC50 (Table 4).
On to `CCC1(CC)CC(=O)N(C(CC(C)OC)[C@H]2C[C@@H]2C(=O)N[C@H]2CC(C)(C)Oc3ccccc32)C(=N)N1` (single isomer, unassigned) [Example 142A], for which the concentration for a half-maximal effect (EC50) is 1.9 nM. `CCC1(CC)CC(=O)N(C(CC(C)OC)[C@H]2C[C@@H]2C(=O)N[C@H]2CC(C)(C)Oc3ccccc32)C(=N)N1` (single isomer, unassigned) [Example 142B]: the EC50 was 0.7 nM.

For the compound `CCC1(CC)CC(=O)N(C(CC(C)OC)[C@H]2C[C@@H]2C(=O)N[C@H]2CC(C)(C)Oc3ccccc32)C(=N)N1` (single isomer, unassigned) [Example 142C], the half-maximal effective concentration (EC50) is 205 nM.

A word on the EC50: it is the concentration at which the effect is half-maximal.
